Measurements taken from the supplement of paper PMC12463676, “Small-molecule dissolution of stress granules by redox modulation benefits ALS models” (Nature Chemical Biology, 2025).

Experiments:
[1] = compound: O=[As]([O-])(O)O.[K+] [potassium arsenate]; assay: thermal stability z-score vs DMSO; higher = more thermally stabilized by treatment; conditions: HeLa; arsenate concentration 1 mM
Experimental: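 Cellular thermal proteome profiling in HeLa cells treated with 1 mM arsenate for 1 h (DMSO pretreatment), heated to ten temperatures (37-66.3 °C). Soluble protein was quantified by TMT mass spectrometry relative to DMSO controls; the thermal stability score was transformed to a z-score; mean of n = 3 experiments.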

[2] = compound: NC(=O)CCCCC1CCSS1 [lipoamide]; assay: as above; conditions: HeLa, lipoamide concentration 100 µM
Experimental: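 Cellular thermal proteome profiling in HeLa cells. Cells were treated with 100 µM lipoamide for 1 h, with or without 1 mM arsenate for a further 1 h, then heated to ten temperatures (37-66.3 °C), and soluble protein was quantified by TMT mass spectrometry relative to 0.1% DMSO controls. The thermal stability score (sum of log2 fold changes minus the abundance score) was transformed to a z-score; mean of n = 3 experiments.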

[3] = arsenate co-treatment: 1 mM arsenate 1 h
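Note: each temperature applied for 3 min, abundance score taken as mean log2 fold change at the two lowest temperatures, z-score obtained by mean subtraction and division by SD.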

Chain of UniProt O43681 (O43681 whole entry): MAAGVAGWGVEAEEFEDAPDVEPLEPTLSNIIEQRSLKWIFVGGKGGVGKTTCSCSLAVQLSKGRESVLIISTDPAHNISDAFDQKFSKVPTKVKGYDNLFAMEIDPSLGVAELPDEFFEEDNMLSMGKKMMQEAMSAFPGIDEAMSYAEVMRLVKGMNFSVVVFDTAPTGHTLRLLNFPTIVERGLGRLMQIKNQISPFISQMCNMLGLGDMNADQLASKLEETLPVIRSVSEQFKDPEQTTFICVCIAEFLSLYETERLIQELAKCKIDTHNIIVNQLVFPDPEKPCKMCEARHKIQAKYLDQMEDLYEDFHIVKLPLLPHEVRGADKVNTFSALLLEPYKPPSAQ
Chain of UniProt Q8NBU5 (Q8NBU5 whole entry): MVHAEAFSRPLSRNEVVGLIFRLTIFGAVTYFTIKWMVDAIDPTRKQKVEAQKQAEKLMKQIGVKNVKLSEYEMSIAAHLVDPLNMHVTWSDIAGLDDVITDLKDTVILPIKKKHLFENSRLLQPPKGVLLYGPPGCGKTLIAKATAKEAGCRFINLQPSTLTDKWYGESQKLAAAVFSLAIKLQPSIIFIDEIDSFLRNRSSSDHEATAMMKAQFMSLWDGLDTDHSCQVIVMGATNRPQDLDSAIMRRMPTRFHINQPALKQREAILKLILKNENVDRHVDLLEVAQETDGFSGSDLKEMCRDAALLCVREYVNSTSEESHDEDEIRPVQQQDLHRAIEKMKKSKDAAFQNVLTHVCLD
Chain of UniProt Q6NXE6 (Q6NXE6 whole entry): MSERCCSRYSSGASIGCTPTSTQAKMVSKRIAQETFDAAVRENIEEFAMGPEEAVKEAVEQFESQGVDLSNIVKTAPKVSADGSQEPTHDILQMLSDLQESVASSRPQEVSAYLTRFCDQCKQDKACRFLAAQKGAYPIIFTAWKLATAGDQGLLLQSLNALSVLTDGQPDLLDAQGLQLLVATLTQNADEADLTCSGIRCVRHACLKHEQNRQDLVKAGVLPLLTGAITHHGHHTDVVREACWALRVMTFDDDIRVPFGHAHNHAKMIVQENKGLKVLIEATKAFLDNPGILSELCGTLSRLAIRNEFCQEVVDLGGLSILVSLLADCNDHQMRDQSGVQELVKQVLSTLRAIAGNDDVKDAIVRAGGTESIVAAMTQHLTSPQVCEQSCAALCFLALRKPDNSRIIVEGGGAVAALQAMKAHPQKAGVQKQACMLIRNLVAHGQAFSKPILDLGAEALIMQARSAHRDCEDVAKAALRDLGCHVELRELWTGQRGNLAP
Chain of UniProt Q8N5I2 (Q8N5I2 whole entry): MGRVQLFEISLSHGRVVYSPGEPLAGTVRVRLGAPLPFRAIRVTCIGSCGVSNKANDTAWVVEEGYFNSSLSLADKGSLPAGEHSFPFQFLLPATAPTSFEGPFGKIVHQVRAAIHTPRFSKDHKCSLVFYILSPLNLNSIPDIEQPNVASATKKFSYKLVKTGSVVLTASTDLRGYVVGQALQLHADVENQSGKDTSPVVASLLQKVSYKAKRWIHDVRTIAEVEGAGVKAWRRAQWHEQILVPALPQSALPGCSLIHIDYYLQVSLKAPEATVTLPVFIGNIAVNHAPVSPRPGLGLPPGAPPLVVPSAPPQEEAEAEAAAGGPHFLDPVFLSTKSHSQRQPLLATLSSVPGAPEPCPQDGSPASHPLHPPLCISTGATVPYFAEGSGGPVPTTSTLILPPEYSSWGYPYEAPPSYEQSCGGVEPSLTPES
Chain of UniProt O95671 (O95671 whole entry): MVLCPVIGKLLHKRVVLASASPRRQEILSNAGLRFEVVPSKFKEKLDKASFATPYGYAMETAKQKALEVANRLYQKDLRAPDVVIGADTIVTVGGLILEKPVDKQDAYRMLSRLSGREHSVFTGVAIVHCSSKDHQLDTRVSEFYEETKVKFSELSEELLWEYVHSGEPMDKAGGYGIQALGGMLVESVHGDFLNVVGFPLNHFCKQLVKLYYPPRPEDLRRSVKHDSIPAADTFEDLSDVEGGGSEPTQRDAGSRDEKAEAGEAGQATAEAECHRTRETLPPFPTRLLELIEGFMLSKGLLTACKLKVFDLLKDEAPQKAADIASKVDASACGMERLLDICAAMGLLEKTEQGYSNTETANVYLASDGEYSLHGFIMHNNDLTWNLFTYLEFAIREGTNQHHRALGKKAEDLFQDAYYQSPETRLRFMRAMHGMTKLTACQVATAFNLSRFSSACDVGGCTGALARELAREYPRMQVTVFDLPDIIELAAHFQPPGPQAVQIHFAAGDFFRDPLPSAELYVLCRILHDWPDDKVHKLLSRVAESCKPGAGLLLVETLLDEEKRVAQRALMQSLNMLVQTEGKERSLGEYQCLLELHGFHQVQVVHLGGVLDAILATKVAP
Chain of UniProt Q13510 (Q13510 whole entry): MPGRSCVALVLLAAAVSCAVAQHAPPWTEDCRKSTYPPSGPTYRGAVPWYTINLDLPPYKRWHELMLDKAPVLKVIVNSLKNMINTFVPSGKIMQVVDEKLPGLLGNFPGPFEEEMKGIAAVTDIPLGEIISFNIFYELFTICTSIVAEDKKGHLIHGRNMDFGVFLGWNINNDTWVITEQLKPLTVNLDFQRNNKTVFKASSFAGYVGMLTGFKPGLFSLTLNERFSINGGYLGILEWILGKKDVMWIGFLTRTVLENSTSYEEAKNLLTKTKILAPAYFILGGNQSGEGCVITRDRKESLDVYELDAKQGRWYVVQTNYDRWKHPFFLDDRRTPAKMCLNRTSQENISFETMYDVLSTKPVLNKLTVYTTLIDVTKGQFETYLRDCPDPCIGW
Chain of UniProt O95260 (O95260 whole entry): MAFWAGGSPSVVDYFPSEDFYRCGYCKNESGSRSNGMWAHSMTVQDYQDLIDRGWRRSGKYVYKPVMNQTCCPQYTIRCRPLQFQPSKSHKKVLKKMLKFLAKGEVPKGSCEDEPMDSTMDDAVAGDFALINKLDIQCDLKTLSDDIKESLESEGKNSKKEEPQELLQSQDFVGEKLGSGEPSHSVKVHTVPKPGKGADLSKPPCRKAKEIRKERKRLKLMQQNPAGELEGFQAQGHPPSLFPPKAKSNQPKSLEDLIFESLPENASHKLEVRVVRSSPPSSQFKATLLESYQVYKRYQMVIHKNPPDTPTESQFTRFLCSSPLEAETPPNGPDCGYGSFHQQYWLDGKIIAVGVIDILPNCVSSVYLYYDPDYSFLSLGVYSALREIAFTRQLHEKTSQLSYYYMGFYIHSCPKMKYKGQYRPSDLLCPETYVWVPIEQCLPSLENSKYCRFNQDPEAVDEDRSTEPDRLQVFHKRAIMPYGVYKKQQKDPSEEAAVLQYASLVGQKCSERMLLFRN
Chain of UniProt Q9NVP2 (Q9NVP2 whole entry): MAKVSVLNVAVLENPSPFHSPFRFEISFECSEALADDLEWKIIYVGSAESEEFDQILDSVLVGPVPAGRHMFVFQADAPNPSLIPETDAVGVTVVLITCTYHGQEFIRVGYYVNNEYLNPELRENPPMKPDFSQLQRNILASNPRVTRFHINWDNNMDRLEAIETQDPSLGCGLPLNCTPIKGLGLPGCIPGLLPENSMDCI
Chain of UniProt P40616 (P40616 whole entry): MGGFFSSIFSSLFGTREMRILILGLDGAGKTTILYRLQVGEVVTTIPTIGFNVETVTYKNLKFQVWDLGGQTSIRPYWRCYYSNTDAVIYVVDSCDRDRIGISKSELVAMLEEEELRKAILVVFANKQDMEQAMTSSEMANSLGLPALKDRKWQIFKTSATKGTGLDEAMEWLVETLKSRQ
Chain of UniProt Q66PJ3 (Q66PJ3 whole entry): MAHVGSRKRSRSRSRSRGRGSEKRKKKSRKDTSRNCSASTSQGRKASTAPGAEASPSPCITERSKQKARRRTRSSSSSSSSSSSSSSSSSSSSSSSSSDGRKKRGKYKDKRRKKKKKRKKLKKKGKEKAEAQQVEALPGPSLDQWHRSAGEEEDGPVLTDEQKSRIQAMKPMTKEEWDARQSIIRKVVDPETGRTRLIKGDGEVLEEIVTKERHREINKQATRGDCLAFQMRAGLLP
Chain of UniProt Q9BPX5 (Q9BPX5 whole entry): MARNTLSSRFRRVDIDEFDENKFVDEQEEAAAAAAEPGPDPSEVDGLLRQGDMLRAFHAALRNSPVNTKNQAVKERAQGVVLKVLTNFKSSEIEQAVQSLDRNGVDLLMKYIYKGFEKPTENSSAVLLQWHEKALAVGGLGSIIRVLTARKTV
Chain of UniProt P36404 (P36404 whole entry): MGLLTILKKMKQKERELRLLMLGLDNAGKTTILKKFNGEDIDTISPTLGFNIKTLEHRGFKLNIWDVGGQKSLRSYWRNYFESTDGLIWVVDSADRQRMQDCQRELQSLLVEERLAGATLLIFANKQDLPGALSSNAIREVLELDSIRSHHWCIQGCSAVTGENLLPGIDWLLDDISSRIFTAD
Chain of UniProt Q9Y294 (Q9Y294 whole entry): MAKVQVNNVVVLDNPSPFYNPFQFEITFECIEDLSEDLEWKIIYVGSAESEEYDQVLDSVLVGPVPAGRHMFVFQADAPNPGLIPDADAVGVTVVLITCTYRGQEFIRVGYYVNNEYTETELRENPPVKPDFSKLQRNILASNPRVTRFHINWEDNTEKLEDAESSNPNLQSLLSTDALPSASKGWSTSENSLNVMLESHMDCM
Chain of UniProt Q9H2C2 (Q9H2C2 whole entry): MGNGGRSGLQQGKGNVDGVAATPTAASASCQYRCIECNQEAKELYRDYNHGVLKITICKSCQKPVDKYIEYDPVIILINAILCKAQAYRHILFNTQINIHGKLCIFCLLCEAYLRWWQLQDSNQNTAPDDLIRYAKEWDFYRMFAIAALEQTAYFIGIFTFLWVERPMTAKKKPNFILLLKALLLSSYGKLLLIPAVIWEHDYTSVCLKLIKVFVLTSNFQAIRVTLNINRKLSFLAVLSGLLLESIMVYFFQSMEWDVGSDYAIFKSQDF
Chain of UniProt P56211 (P56211 whole entry): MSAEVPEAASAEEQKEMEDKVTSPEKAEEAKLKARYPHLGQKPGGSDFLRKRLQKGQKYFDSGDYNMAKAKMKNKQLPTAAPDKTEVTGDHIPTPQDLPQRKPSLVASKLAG

| Target | thermal stability z-score [1] | thermal stability z-score [2, 3] | thermal stability z-score ([2]; arsenate co-treatment: none) |
| --- | --- | --- | --- |
| ARIH2 (UniProt O95376) | -0.521 | 0.203 | -0.216 |
| ARL1 (UniProt P40616) | 0.669 | -0.148 | -0.943 |
| ARL2 (UniProt P36404) | 0.664 | -0.405 | -0.0766 |
| ARL2BP (UniProt Q9Y2Y0) | -0.326 | -0.0213 | 0.0527 |
| ARL3 (UniProt P36405) | -0.424 | -0.325 | -0.435 |
| ARL6 (UniProt Q9H0F7) | 0.202 | 0.197 | 0.233 |
| ARL6IP4 (UniProt Q66PJ3) | 0.572 | 0.727 | -0.0769 |
| ARL6IP5 (UniProt O75915) | -0.256 | -0.0796 | 0.285 |
| ARL8A (UniProt Q96BM9) | 0.218 | 0.375 | 0.0879 |
| ARL8B (UniProt Q9NVJ2) | -0.267 | -0.122 | -0.507 |
| ARL13B (UniProt Q3SXY8) | -1.37 | -0.415 | -0.29 |
| ARL14EP (UniProt Q8N8R7) | -0.3 | -0.0926 | -0.15 |
| ARMC1 (UniProt Q9NVT9) | 0.476 | 0.616 | 0.111 |
| ARMC6 (UniProt Q6NXE6) | 1.37 | -0.546 | -0.743 |
| ARMC8 (UniProt Q8IUR7) | -0.668 | -0.0708 | -0.238 |
| ARMT1 (UniProt Q9H993) | 0.195 | 0.0878 | 0.255 |
| ARNT (UniProt P27540) | 0.561 | 0.605 | 0.794 |
| ARPC1A (UniProt Q92747) | -0.466 | -0.106 | 0.0846 |
| ARPC1B (UniProt O15143) | -0.0161 | -0.0473 | -0.175 |
| ARPC2 (UniProt O15144) | -1.15 | -0.317 | -0.205 |
| ARPC3 (UniProt O15145) | -0.254 | 0.0284 | 0.0195 |
| ARPC4 (UniProt P59998) | 0.369 | 1.12 | 0.913 |
| ARPC5 (UniProt O15511) | -0.246 | 0.9 | 0.484 |
| ARPC5L (UniProt Q9BPX5) | -0.302 | 0.0991 | -0.00985 |
| ARPP19 (UniProt P56211) | -0.359 | 0.84 | 0.316 |
| ARRB1 (UniProt P49407) | 0.262 | 0.197 | 0.543 |
| ARRB2 (UniProt P32121) | 0.28 | -0.153 | -1.1 |
| ARRDC1 (UniProt Q8N5I2) | 0.121 | -0.245 | 0.802 |

| Target | thermal stability z-score [1] | thermal stability z-score [2, 3] | thermal stability z-score ([2]; arsenate co-treatment: none) |
| --- | --- | --- | --- |
| ARSA (UniProt P15289) | -0.0376 | 0.254 | 0.195 |
| ARV1 (UniProt Q9H2C2) | -0.894 | 0.292 | 0.473 |
| ASAH1 (UniProt Q13510) | 0.065 | -0.162 | -0.738 |
| ASAP1 (UniProt Q9ULH1) | -0.0654 | 0.0666 | -0.0222 |
| ASAP2 (UniProt O43150) | -0.394 | -0.641 | -0.527 |
| ASB6 (UniProt Q9NWX5) | 0.506 | 0.441 | -0.288 |
| ASB9 (UniProt Q96DX5) | -0.202 | 0.263 | 0.826 |
| ASCC1 (UniProt Q8N9N2) | -0.708 | -1.01 | -0.215 |
| ASCC2 (UniProt Q9H1I8) | 1.51 | -0.0905 | 0.388 |
| ASCC3 (UniProt Q8N3C0) | -0.277 | -0.289 | -0.167 |
| ASF1A (UniProt Q9Y294) | -0.103 | -0.132 | -0.202 |
| ASF1B (UniProt Q9NVP2) | -0.169 | -0.0916 | -0.0291 |
| ASH2L (UniProt Q9UBL3) | -1.84 | 0.566 | -0.319 |
| ASL (UniProt P04424) | -0.112 | 0.153 | -0.627 |
| ASMTL (UniProt O95671) | -0.959 | 1.09 | 1.31 |
| ASNA1 (UniProt O43681) | -0.178 | -0.234 | -0.285 |
| ASNS (UniProt P08243) | -0.303 | 1.69 | 0.131 |
| ASNSD1 (UniProt Q9NWL6) | -0.734 | -0.942 | -0.0608 |
| ASPH (UniProt Q12797) | 0.014 | -2.27 | -2.04 |
| ASPHD1 (UniProt Q5U4P2) | -0.276 | -0.334 | 0.214 |
| ASPSCR1 (UniProt Q9BZE9) | -0.304 | 0.207 | -0.218 |
| ASS1 (UniProt P00966) | -1.34 | -0.416 | 0.107 |
| ASUN (UniProt Q9NVM9) | 0.906 | 0.368 | 0.404 |
| ATAD1 (UniProt Q8NBU5) | 0.641 | 0.216 | 0.454 |
| ATAD3A (UniProt Q9NVI7) | 0.401 | -0.137 | 0.337 |
| ATAD3B (UniProt Q5T9A4) | 0.607 | -0.338 | -0.0604 |
| ATE1 (UniProt O95260) | -2.08 | 0.315 | -0.209 |
